Bounds are passed on as bounds.

The target of one test is T1, recombinant full-length USP7 (Homo sapiens, UniProt Q93009).
T1 construct: A 25 μl reaction volume containing recombinant full-length USP7 (62 pM)
T1 sequence (Q93009 whole entry): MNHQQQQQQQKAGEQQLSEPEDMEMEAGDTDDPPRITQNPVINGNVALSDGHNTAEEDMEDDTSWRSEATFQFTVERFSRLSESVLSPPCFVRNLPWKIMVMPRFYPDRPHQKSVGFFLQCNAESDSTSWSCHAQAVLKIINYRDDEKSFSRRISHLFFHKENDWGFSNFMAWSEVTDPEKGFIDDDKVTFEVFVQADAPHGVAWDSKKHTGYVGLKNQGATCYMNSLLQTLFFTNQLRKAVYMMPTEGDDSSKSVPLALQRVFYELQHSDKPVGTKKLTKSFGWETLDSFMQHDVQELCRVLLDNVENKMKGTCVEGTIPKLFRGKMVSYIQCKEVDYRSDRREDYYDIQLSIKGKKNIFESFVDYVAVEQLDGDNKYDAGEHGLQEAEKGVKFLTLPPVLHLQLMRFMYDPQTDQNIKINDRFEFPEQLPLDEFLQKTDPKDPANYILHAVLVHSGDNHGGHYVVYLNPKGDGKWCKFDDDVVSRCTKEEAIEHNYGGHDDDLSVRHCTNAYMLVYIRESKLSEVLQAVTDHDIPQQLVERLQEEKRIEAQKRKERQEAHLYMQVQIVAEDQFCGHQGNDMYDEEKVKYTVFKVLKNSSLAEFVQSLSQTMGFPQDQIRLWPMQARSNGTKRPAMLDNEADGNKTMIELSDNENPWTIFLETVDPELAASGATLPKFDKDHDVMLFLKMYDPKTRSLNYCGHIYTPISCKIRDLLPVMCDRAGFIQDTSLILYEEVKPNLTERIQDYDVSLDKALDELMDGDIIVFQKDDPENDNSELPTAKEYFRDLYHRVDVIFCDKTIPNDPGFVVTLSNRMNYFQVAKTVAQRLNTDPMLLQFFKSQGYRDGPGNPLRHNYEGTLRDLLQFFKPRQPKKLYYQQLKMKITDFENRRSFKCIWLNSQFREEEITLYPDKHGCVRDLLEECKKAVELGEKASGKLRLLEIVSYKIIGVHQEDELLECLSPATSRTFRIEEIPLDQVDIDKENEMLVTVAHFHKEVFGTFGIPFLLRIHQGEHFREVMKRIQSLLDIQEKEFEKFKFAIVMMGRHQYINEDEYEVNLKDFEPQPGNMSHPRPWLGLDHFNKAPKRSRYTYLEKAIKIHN
Nature of the test: USP7-mediated ubiquitin-rhodamine cleavage assay. It counts as biochemical. The conditions noted are these: recombinant full-length USP7 62 pM; ubiquitin-rhodamine 100 nM; 30-minute incubation with compound, 1 hour reaction at room temperature; read-out: Potency: USP7 IC50. The protocol: In the case of the USP7 deubiquitylating enzyme, the IC50 of an USP7 inhibiting compound is the concentration of the compound that inhibits 50% of the activity observed in a USP7-mediated ubiquitin-rhodamine cleavage assay.
For the USP7 inhibitors disclosed herein, their potency was measured using the following test method.
A 25 μl reaction volume containing recombinant full-length USP7 (62 pM) in 20 mM HEPES pH 7.3, 150 mM NaCl, 1 mM TCEP, and 125 μg/ml BSA was assembled in wells of 384 well plates. Test compounds were dispensed with a Hewlett Packard D300 digital dispenser (1% final DMSO). Following a 30-minute incubation at room temperature, ubiquitin-rhodamine was added with the D300 to a final concentration of 100 nM and the reaction was allowed to proceed for 1 hour at room temperature protected from light. The reaction was stopped by the addition of 5 μl 1M acetic acid. Rhodamine fluorescence was measured using an Envision plate reader (Perkin Elmer) and IC50 values were determined by non-linear regression using a 4-parameter fit in a Dotmatics (Bishops Stortford, Hertfordshire, England) software package.
Regarding `Cc1cc(Cl)cc(-c2ccnc3cc(CN4C(=O)CCC4=O)sc23)c1O[C@H]1CCCNCC1` [Example 269, (S)-1-((7-(2-(Azepan-4-yloxy)-5-chloro-3-methylphenyl)thieno[3,2-b]pyridin-2-yl)methyl)pyrrolidine-2,5-dione], the IC50 was under 1000 nM.
Same read-out and setting: the same measure for `Cc1cc(Cl)cc(-c2ccnc3cc(CN4C(=O)C5CCCN5C4=O)sc23)c1O[C@@H]1CNC[C@@H]1F` (stereo partly drawn) [Example 143, 2-((7-(5-Chloro-2-(((3R,4S)-4-fluoropyrrolidin-3-yl)oxy)-3-methylphenyl)thieno[3,2-b]pyridin-2-yl)methyl)tetrahydro-1H-pyrrolo[1,2-c] imidazole-1,3(2H)-dione]: under 1000 nM; for `Cc1cc(Cl)cc(-c2ccnc3cc(Cn4c(=O)ccn(C)c4=O)sc23)c1OC1CCNCC1` [Example 195, 3-((7-(5-Chloro-3-methyl-2-(piperidin-4-yloxy)phenyl)thieno[3,2-b]pyridin-2-yl)methyl)-1-methylpyrimidine-2,4(1H,3H)-dione]: under 1000 nM; for `Cc1cc(Cl)cc(-c2ccnc3cc(CN4C(=O)CCC4=O)sc23)c1OC1CCN(C)CC1` [Example 216, 1-((7-(5-Chloro-3-methyl-2-((I-methylpiperidin-4-yl)oxy)phenyl)thieno[3,2-b]pyridin-2-yl)methyl)pyrrolidine-2,5-dione]: under 1000 nM.
On the same count and under the same terms, next, `Cc1cc(C(F)(F)F)cc(-c2ccnc3cc(Cn4c(=O)[nH]cc(F)c4=O)sc23)c1O[C@@H]1CNC[C@@H]1F` [Example 136, 5-Fluoro-3-((7-(2-(((3R,4S)-4-fluoropyrrolidin-3-yl)oxy)-3-methyl-5-(trifluoromethyl)phenyl)thieno[3,2-b]pyridin-2-yl)methyl)pyrimidine-2,4(1H,3H)-dione]: under 1000 nM.
Same read-out and setting: next, `Cc1cc(Cl)cc(-c2ccnc3cc(CN4C(=O)CCC4=O)sc23)c1O[C@H]1CCCCNC1` [Example 268, (S)-1-((7-(2-(azepan-3-yloxy)-5-chloro-3-methylphenyl)thieno[3,2-b]pyridin-2-yl)methyl)pyrrolidine-2,5-dione]: under 1000 nM.
For `Cc1cc(Cl)cc(-c2ccnc3cc(CN4C(=O)C5CC5C4=O)sc23)c1OC1CCNC1C` (centres unmarked) [Example 301, 3-[[7-[5-chloro-3-methyl-2-(2-methylpyrrolidin-3-yl)oxy-phenyl]thieno[3,2-b]pyridin-2-yl]methyl]-3-azabicyclo[3.1.0]hexane-2,4-dione; 2,2,2-trifluoroacetic acid], the IC50 is under 1000 nM.
The same measure, in the same setting: next, `Cc1cc(Cl)cc(-c2ccnc3cc(CO)sc23)c1O[C@@H]1CNC[C@H]1C` [Example 55, (7-(5-Chloro-3-methyl-2-(((3S,4R)-4-methylpyrrolidin-3-yl)oxy)phenyl)thieno[3,2-b]pyridin-2-yl)methanol]: 10000 to 30000 nM.
For the compound `Cc1cc(Cl)cc(-c2ncnc3cc(CN4C(=O)CCC4=O)sc23)c1O[C@H]1CCCNC1` [Example 230, (S)-1-((4-(5-Chloro-3-methyl-2-(piperidin-3-yloxy)phenyl)thieno[3,2-d]pyrimidin-6-yl)methyl)pyrrolidine-2,5-dione], the IC50 is under 1000 nM.
Turning to `Cc1cc(Cl)cc(-c2ccnc3cc(CN4C(=O)c5cccnc5C4=O)sc23)c1O[C@H]1CCCNC1` [Example 334, 6-[[7-[5-chloro-3-methyl-2-[[(3S)-3-piperidyl]oxy]phenyl]thieno[3,2-b]pyridin-2-yl]methyl]pyrrolo[3,4-b]pyridine-5,7-dione; 2,2,2-trifluoroacetic acid], the IC50 is under 1000 nM.
For `Cc1cc(Cl)cc(-c2ccnc3cc(CO)sc23)c1OC[C@H]1CCCN1` [Example 58, (R)-(7-(5-Chloro-3-methyl-2-(pyrrolidin-2-ylmethoxy)phenyl)thieno[3,2-b]pyridin-2-yl)methanol], the IC50 was 10000 to 30000 nM.
On the same count and under the same terms, next, `CCC(O)c1cc2nccc(-c3cc(Cl)cc(C)c3O[C@H]3C[C@H]4CC[C@@H](C3)N4)c2s1` (stereo partly drawn) [Example 199, 1-(7-(2-(((1R,3r,5S)-8-Azabicyclo[3.2.1]octan-3-yl)oxy)-5-chloro-3-methylphenyl)thieno[3,2-b]pyridin-2-yl)propan-1-ol]: 1000 to 10000 nM; `Cc1cc(Cl)cc(-c2ccnc3cc(CN4C(=O)CCC4=O)sc23)c1O[C@@H]1CN(C2CCC2)C[C@@H]1F` [Example 322, 1-[[7-[5-chloro-2-[(3R,4S)-1-cyclobutyl-4-fluoro-pyrrolidin-3-yl]oxy-3-methyl-phenyl]thieno[3,2-b]pyridin-2-yl]methyl]pyrrolidine-2,5-dione]: under 1000 nM.
The same measure, in the same setting: the same measure for `Cc1cc(Cl)cc(-c2ccnc3cc(CN4C(=O)CCC4=O)sc23)c1O[C@@H]1CCN(C)C[C@@H]1C` [Example 308, 1-[[7-[5-chloro-2-[[(3S,4R)-1,3-dimethyl-4-piperidyl]oxy]-3-methyl-phenyl]thieno[3,2-b]pyridin-2-yl]methyl]pyrrolidine-2,5-dione]: under 1000 nM; for `CCC(O)c1cc2nccc(-c3cc(Cl)cc(C)c3OC3CCCCNC3)c2s1` (centres unmarked) [Example 265, 1-(7-(2-(Azepan-3-yloxy)-5-chloro-3-methylphenyl)thieno[3,2-b]pyridin-2-yl)propan-1-ol]: 1000 to 10000 nM.
Turning to `CC(=O)NCc1cc2nccc(-c3cc(Cl)cc(C)c3O[C@@H]3CNC[C@@H]3F)c2s1` [Example 91, N-((7-(5-Chloro-2-(((3R,4S)-4-fluoropyrrolidin-3-yl)oxy)-3-methylphenyl)thieno[3,2-b]pyridin-2-yl)methyl)acetamide], the IC50 was under 1000 nM.

The test is the same for the next values; noted with them: recombinant full-length USP7 62 pM; ubiquitin-rhodamine 100 nM; 30-minute pre-incubation, 1 hour reaction at room temperature; read-out: Potency (USP7 IC50).
As to `Cc1cc(Cl)cc(-c2ccnc3cc(Cn4c(=O)ccn(CC(F)(F)F)c4=O)sc23)c1O[C@H]1CNC[C@H]1C` [Example 626, 3-[[7-[5-chloro-3-methyl-2-[(3R,4R)-4-methylpyrrolidin-3-yl]oxy-phenyl]thieno[3,2-b]pyridin-2-yl]methyl]-1-(2,2,2-trifluoroethyl)pyrimidine-2,4-dione], the IC50 is under 1000 nM.
As to `Cc1cc(Cl)cc(-c2ccnc3cc(Cn4c(=O)c(C)cn(C)c4=O)sc23)c1O[C@H]1CCCNC1` [Example 478, 3-[[7-[5-chloro-3-methyl-2-[[(3S)-3-piperidyl]oxy]phenyl]thieno[3,2-b]pyridin-2-yl]methyl]-1,5-dimethyl-pyrimidine-2,4-dione; 2,2,2-trifluoroacetic acid], the IC50 is under 1000 nM.
Same read-out and setting: next, `Cc1cc(C(F)(F)F)cc(-c2ccnc3cc(Cn4c(=O)ccn(C)c4=O)sc23)c1OC1CCNCC1` [Example 446, 1-methyl-3-[[7-[3-methyl-2-(4-piperidyloxy)-5-(trifluoromethyl)phenyl]thieno[3,2-b]pyridin-2-yl]methyl]pyrimidine-2,4-dione]: under 1000 nM.
Same read-out and setting: next, `Cc1cc(Cl)cc(-c2ccnc3cc(Cn4c(=O)ccn(CC(F)(F)F)c4=O)sc23)c1OC1CC(N2CCOC[C@H]2C)C1` (stereo partly drawn) [Example 657, 3-[[7-[5-chloro-3-methyl-2-[3-[(3R)-3-methylmorpholin-4-yl]cyclobutoxy]phenyl]thieno[3,2-b]pyridin-2-yl]methyl]-1-(2,2,2-trifluoroethyl)pyrimidine-2,4-dione; 2,2,2-trifluoroacetic acid]: under 1000 nM; `Cc1cc(Cl)cc(-c2ccnc3cc(CN4C(=O)CCC4=O)sc23)c1OC1CC(N)C1` (centres unmarked) [Example 437, 1-[[7-[2-(3-aminocyclobutyoxy)-5-chloro-3-methyl-phenyl]thieno[3,2-b]pyridin-2-yl]methyl]pyrrolidine-2,5-dione; 2,2,2-trifluoroacetic acid]: under 1000 nM; `Cc1cc(Cl)cc(-c2ccnc3cc(Cn4c(=O)c(C)cn(C)c4=O)sc23)c1O[C@@H]1CNC[C@@H]1F` [Example 480, 3-[[7-[5-chloro-2-[(3R,4S)-4-fluoropyrrolidin-3-yl]oxy-3-methyl-phenyl]thieno[3,2-b]pyridin-2-yl]methyl]-1,5-dimethyl-pyrimidine-2,4-dione]: under 1000 nM.
Same read-out and setting: the same measure for `Cc1cc(Cl)cc(-c2ccnc3cc(Cn4c(=O)ccn(C)c4=O)sc23)c1OCC(C)N` (centres unmarked) [Example 554, 3-[[7-[2-(2-aminopropoxy)-5-chloro-3-methyl-phenyl]thieno[3,2-b]pyridin-2-yl]methyl]-1-methyl-pyrimidine-2,4-dione; 2,2,2-trifluoroacetic acid]: under 1000 nM; for `Cc1cc(Cl)cc(-c2ccnc3cc(CN4C(=O)CCC4=O)sc23)c1O[C@H]1CCCN(C2COC2)C1` [Example 449, 1-[[7-[5-chloro-3-methyl-2-[[(3S)-1-(oxetan-3-yl)-3-piperidyl]oxy]phenyl]thieno[3,2-b]pyridin-2-yl]methyl]pyrrolidine-2,5-dione]: under 1000 nM; for `Cc1cc(Cl)cc(-c2ccnc3cc(Cn4c(=O)ccn(CC(F)(F)F)c4=O)sc23)c1O[C@H]1CCNC[C@H]1C` [Example 565, 3-[[7-[5-chloro-3-methyl-2-[[(3R,4S)-3-methyl-4-piperidyl]oxy]phenyl]thieno[3,2-b]pyridin-2-yl]methyl]-1-(2,2,2-trifluoroethyl)pyrimidine-2,4-dione]: under 1000 nM.
For `Cc1cc(Cl)cc(-c2ncnc3cc(Cn4c(=O)ccn(CC(F)(F)F)c4=O)sc23)c1O[C@H]1CC[C@H](C)NC1` [Example 562, 3-[[4-[5-chloro-3-methyl-2-[[(3S,6S)-6-methyl-3-piperidyl]oxy]phenyl]thieno[3,2-d]pyrimidin-6-yl]methyl]-1-(2,2,2-trifluoroethyl)pyrimidine-2,4-dione; 2,2,2-trifluoroacetic acid], the IC50 was under 1000 nM.

For the origin of these results see US10722514B2 (FLX Bio, Inc., priority 2017, dated 2020).
